From the NIST ThermoML archive (doi:10.1016/j.jct.2010.02.009)
± gives the expanded uncertainty stated by the source.

Columns and labels:
[1] = refractive index (other wavelength) (dimensionless); details: 101 kPa, Liquid, Wavelength=632.8 nm, Standard Abbe refractometry
[2] = refractive index (other wavelength) (dimensionless); xn = mol fraction of the nth substance listed; details: 101 kPa, Liquid, Wavelength=632.8 nm, Standard Abbe refractometry, x2 = 0

N#Cc1ccccc1 [benzonitrile]
[1]
Details | refractive index
278.24 K | 1.5324 ± 0.0008
279.25 K | 1.5319 ± 0.0008
281.33 K | 1.5308 ± 0.0008
282.96 K | 1.5301 ± 0.0008
284.3 K | 1.5294 ± 0.0008
285.43 K | 1.5288 ± 0.0008

CCCCCCCCC [nonane]
[1]
Details | refractive index
278.08 K | 1.4111 ± 0.0008
279.19 K | 1.4106 ± 0.0008
280.4 K | 1.4101 ± 0.0008
281.48 K | 1.4095 ± 0.0008
282.59 K | 1.409 ± 0.0008
283.65 K | 1.4085 ± 0.0008
284.91 K | 1.4079 ± 0.0008

CCCCCCCCC [nonane] + N#Cc1ccccc1
[2]
Details | refractive index
278.08 K | 1.4111 ± 0.0008
279.19 K | 1.4106 ± 0.0008
280.4 K | 1.4101 ± 0.0008
281.48 K | 1.4095 ± 0.0008
282.59 K | 1.409 ± 0.0008
283.65 K | 1.4085 ± 0.0008
284.91 K | 1.4079 ± 0.0008
